Data reported in PubChem BioAssay (NCI).
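Grown in 96-well plates, cells were treated for 48 hours with each compound at five concentrations. Insufficient inhibition: endpoint recorded as highest concentration tested. TGI marks complete inhibition of growth.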

How the values were obtained:
Assay in all cases: NCI tumour cell line growth inhibition, 48 h
UACC-257 melanoma = system: UACC-257 melanoma
EKVX NSCLC = system: EKVX NSCLC
MDA-MB-435 = system: MDA-MB-435
M14 melanoma = system: M14 melanoma
A549 NSCLC = system: A549 NSCLC
OVCAR-5 ovarian = system: OVCAR-5 ovarian
UACC-62 melanoma = system: UACC-62 melanoma
K-562 leukemia = system: K-562 leukemia
MALME-3M melanoma = system: MALME-3M melanoma
SR leukemia = system: SR leukemia
HCC-2998 colon = system: HCC-2998 colon
MOLT-4 leukemia = system: MOLT-4 leukemia
SK-OV-3 ovarian = system: SK-OV-3 ovarian
NCI-H460 lung = system: NCI-H460 lung
TK-10 renal = system: TK-10 renal
IGROV1 ovarian = system: IGROV1 ovarian
RXF 393 renal = system: RXF 393 renal
HCT-15 colon = system: HCT-15 colon
RPMI-8226 leukemia = system: RPMI-8226 leukemia
HT29 colon = system: HT29 colon
HCT-116 colon = system: HCT-116 colon
SW-620 colon = system: SW-620 colon
MCF7 breast = system: MCF7 breast
PC-3 prostate = system: PC-3 prostate
HOP-92 NSCLC = system: HOP-92 NSCLC
T-47D breast = system: T-47D breast
OVCAR-8 ovarian = system: OVCAR-8 ovarian
SK-MEL-5 melanoma = system: SK-MEL-5 melanoma
ACHN renal = system: ACHN renal
LOX IMVI melanoma = system: LOX IMVI melanoma
NCI-H23 lung = system: NCI-H23 lung
HOP-62 NSCLC = system: HOP-62 NSCLC
MDA-N = system: MDA-N
NCI/ADR-RES ovarian = system: NCI/ADR-RES ovarian
OVCAR-3 ovarian = system: OVCAR-3 ovarian
UO-31 renal = system: UO-31 renal
SF-295 CNS = system: SF-295 CNS
COLO 205 colon = system: COLO 205 colon
SK-MEL-2 melanoma = system: SK-MEL-2 melanoma
786-0 renal = system: 786-0 renal
SN12C renal = system: SN12C renal
OVCAR-4 ovarian = system: OVCAR-4 ovarian
NCI-H522 lung = system: NCI-H522 lung
SF-268 CNS = system: SF-268 CNS
HS 578T breast = system: HS 578T breast
BT-549 breast = system: BT-549 breast
U251 CNS = system: U251 CNS
KM12 colon = system: KM12 colon
MDA-MB-231 breast = system: MDA-MB-231 breast
SF-539 CNS = system: SF-539 CNS
SNB-75 CNS = system: SNB-75 CNS
A498 renal = system: A498 renal
CCRF-CEM leukemia = system: CCRF-CEM leukemia
SNB-19 CNS = system: SNB-19 CNS
CAKI-1 renal = system: CAKI-1 renal
NCI-H226 lung = system: NCI-H226 lung
HL-60(TB) leukemia = system: HL-60(TB) leukemia
DU-145 prostate = system: DU-145 prostate
SK-MEL-28 melanoma = system: SK-MEL-28 melanoma

O=c1[nH]c2ccccc2c2oc(-c3ccccc3)nc12
TGI (UACC-257 melanoma): > 100 µM
TGI (EKVX NSCLC): > 100 µM
TGI (MDA-MB-435): 38 µM
TGI (M14 melanoma): > 100 µM
TGI (A549 NSCLC): > 100 µM
TGI (OVCAR-5 ovarian): > 100 µM
TGI (UACC-62 melanoma): > 100 µM
TGI (K-562 leukemia): > 100 µM
TGI (MALME-3M melanoma): > 100 µM
TGI (SR leukemia): 70.7 µM
TGI (HCC-2998 colon): > 100 µM
TGI (MOLT-4 leukemia): 87.8 µM
TGI (SK-OV-3 ovarian): > 100 µM
TGI (NCI-H460 lung): > 100 µM
TGI (TK-10 renal): > 100 µM
TGI (IGROV1 ovarian): > 100 µM
TGI (RXF 393 renal): 44 µM
TGI (HCT-15 colon): > 100 µM
TGI (RPMI-8226 leukemia): 70 µM
TGI (HT29 colon): > 100 µM
TGI (HCT-116 colon): 69.3 µM
TGI (SW-620 colon): 58.1 µM
TGI (MCF7 breast): > 100 µM
TGI (PC-3 prostate): > 100 µM
TGI (HOP-92 NSCLC): 56.7 µM
TGI (T-47D breast): > 100 µM
TGI (OVCAR-8 ovarian): 59.1 µM
TGI (SK-MEL-5 melanoma): > 100 µM
TGI (ACHN renal): > 100 µM
TGI (LOX IMVI melanoma): 50.6 µM
TGI (NCI-H23 lung): > 100 µM
TGI (HOP-62 NSCLC): 39 µM
TGI (MDA-N): 46.6 µM
TGI (NCI/ADR-RES ovarian): > 100 µM
TGI (OVCAR-3 ovarian): > 100 µM
TGI (UO-31 renal): > 100 µM
TGI (SF-295 CNS): 57.6 µM
TGI (COLO 205 colon): 37.6 µM
TGI (SK-MEL-2 melanoma): > 100 µM
TGI (786-0 renal): 56.1 µM
TGI (SN12C renal): 43.4 µM
TGI (OVCAR-4 ovarian): > 100 µM
TGI (NCI-H522 lung): > 100 µM
TGI (SF-268 CNS): 71.3 µM
TGI (HS 578T breast): 71.9 µM
TGI (BT-549 breast): > 100 µM
TGI (U251 CNS): 60.8 µM
TGI (KM12 colon): > 100 µM
TGI (MDA-MB-231 breast): 38.1 µM
TGI (SF-539 CNS): > 100 µM
TGI (SNB-75 CNS): 45.8 µM
TGI (A498 renal): 59.5 µM
TGI (CCRF-CEM leukemia): 52.6 µM
TGI (SNB-19 CNS): 80.8 µM
TGI (CAKI-1 renal): 34.4 µM
TGI (NCI-H226 lung): > 100 µM

COc1cc2c(cc1Cl)n([O-])c(C#N)c(N1CCN(c3ccc([N+](=O)[O-])cc3)CC1)[n+]2=O
TGI (HL-60(TB) leukemia): > 100 µM
TGI (UACC-257 melanoma): > 100 µM
TGI (EKVX NSCLC): > 100 µM
TGI (MDA-MB-435): > 100 µM
TGI (M14 melanoma): > 100 µM
TGI (A549 NSCLC): > 100 µM
TGI (OVCAR-5 ovarian): > 100 µM
TGI (UACC-62 melanoma): > 72.9 µM
TGI (K-562 leukemia): > 100 µM
TGI (MALME-3M melanoma): 99.6 µM
TGI (SR leukemia): > 30.7 µM
TGI (HCC-2998 colon): 78.8 µM
TGI (MOLT-4 leukemia): > 68 µM
TGI (SK-OV-3 ovarian): > 100 µM
TGI (NCI-H460 lung): > 100 µM
TGI (TK-10 renal): > 100 µM
TGI (IGROV1 ovarian): 8.29 µM
TGI (RXF 393 renal): > 100 µM
TGI (HCT-15 colon): > 100 µM
TGI (RPMI-8226 leukemia): > 100 µM
TGI (HT29 colon): > 100 µM
TGI (HCT-116 colon): > 100 µM
TGI (SW-620 colon): > 100 µM
TGI (MCF7 breast): > 100 µM
TGI (PC-3 prostate): > 100 µM
TGI (T-47D breast): > 81.5 µM
TGI (OVCAR-8 ovarian): 60.1 µM
TGI (SK-MEL-5 melanoma): > 59.6 µM
TGI (ACHN renal): > 77.2 µM
TGI (DU-145 prostate): > 100 µM
TGI (LOX IMVI melanoma): 73.6 µM
TGI (NCI-H23 lung): 91.3 µM
TGI (HOP-62 NSCLC): > 62.8 µM
TGI (MDA-N): > 100 µM
TGI (NCI/ADR-RES ovarian): > 100 µM
TGI (OVCAR-3 ovarian): > 100 µM
TGI (UO-31 renal): > 100 µM
TGI (SF-295 CNS): > 100 µM
TGI (COLO 205 colon): > 100 µM
TGI (SK-MEL-2 melanoma): > 100 µM
TGI (786-0 renal): > 100 µM
TGI (SN12C renal): > 100 µM
TGI (OVCAR-4 ovarian): > 100 µM
TGI (NCI-H522 lung): 41.6 µM
TGI (SF-268 CNS): > 84 µM
TGI (HS 578T breast): > 57.5 µM
TGI (BT-549 breast): > 100 µM
TGI (U251 CNS): > 100 µM
TGI (KM12 colon): > 100 µM
TGI (MDA-MB-231 breast): > 100 µM
TGI (SF-539 CNS): 44.3 µM
TGI (SNB-75 CNS): > 70.6 µM
TGI (CCRF-CEM leukemia): > 100 µM
TGI (SNB-19 CNS): > 100 µM
TGI (CAKI-1 renal): > 100 µM
TGI (NCI-H226 lung): > 100 µM
TGI (SK-MEL-28 melanoma): > 100 µM

Cc1cc([N+](=O)[O-])ccc1N=NC(=O)NNc1ccc([N+](=O)[O-])cc1C
TGI (HL-60(TB) leukemia): 40.9 µM
TGI (UACC-257 melanoma): 39.4 µM
TGI (MDA-MB-435): 28.4 µM
TGI (M14 melanoma): 28.3 µM
TGI (A549 NSCLC): 31.5 µM
TGI (OVCAR-5 ovarian): 31.8 µM
TGI (UACC-62 melanoma): 26.3 µM
TGI (K-562 leukemia): 39.9 µM
TGI (MALME-3M melanoma): 37 µM
TGI (SR leukemia): 47.6 µM
TGI (HCC-2998 colon): 31 µM
TGI (MOLT-4 leukemia): 37.5 µM
TGI (NCI-H460 lung): 33.4 µM
TGI (TK-10 renal): 31.5 µM
TGI (IGROV1 ovarian): 33.8 µM
TGI (HCT-15 colon): 50.2 µM
TGI (RPMI-8226 leukemia): 55.2 µM
TGI (HT29 colon): 45.6 µM
TGI (HCT-116 colon): 28.2 µM
TGI (SW-620 colon): 33.7 µM
TGI (MCF7 breast): 20.5 µM
TGI (PC-3 prostate): 26.6 µM
TGI (T-47D breast): 28.9 µM
TGI (OVCAR-8 ovarian): 30 µM
TGI (SK-MEL-5 melanoma): 26.7 µM
TGI (ACHN renal): 29.4 µM
TGI (DU-145 prostate): 30.1 µM
TGI (LOX IMVI melanoma): 29.8 µM
TGI (NCI-H23 lung): 41.8 µM
TGI (HOP-62 NSCLC): 29 µM
TGI (MDA-N): 29.9 µM
TGI (OVCAR-3 ovarian): 34.4 µM
TGI (UO-31 renal): 25.2 µM
TGI (SK-MEL-2 melanoma): 43.6 µM
TGI (786-0 renal): 30.6 µM
TGI (SN12C renal): 63.8 µM
TGI (OVCAR-4 ovarian): 31.9 µM
TGI (NCI-H522 lung): 51.7 µM
TGI (SF-268 CNS): 40.9 µM
TGI (BT-549 breast): 28.3 µM
TGI (U251 CNS): 32.9 µM
TGI (SNB-75 CNS): 34.7 µM
TGI (A498 renal): 27.2 µM
TGI (CCRF-CEM leukemia): 41.7 µM
TGI (SNB-19 CNS): 37.8 µM
TGI (CAKI-1 renal): 29.3 µM
TGI (NCI-H226 lung): 31.5 µM
TGI (SK-MEL-28 melanoma): 29.9 µM
